Structures can show the parent of a compound that is named as a salt. ± gives the standard deviation of the averaged measurements.
What was measured:
CHO-K1 [1] = assay: benchmark concentration for 60% increase in hypodiploid frequency (BMC60); higher = less potent aneugen
Experimental: (§1)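 Benchmark concentration modelling (PROAST, Hill/exponential model families) of the 19-concentration flow-cytometric micronucleus assay in CHO-K1 cells, with and without rat liver S9. Only non-cytotoxic and adequate (relative survival >=40%) concentrations were used. BMR was a 30% increase in %MN (BMC30) or a 60% increase in %hypodiploid (BMC60) over control.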

CHO-K1 [2] = assay: benchmark concentration for 30% increase in micronucleus frequency (BMC30); higher = less potent clastogen
Experimental: as §1

[3] = S9 metabolic activation: without S9
[4] = S9 metabolic activation: with S9

Row | SMILES | benchmark concentration (CHO-K1 [1]; [3]) [µM] | other results
1 | OCCC(F)(F)C(F)(F)C(F)(F)C(F)(F)C(F)(F)C(F)(F)C(F)(F)C(F)(F)F [1,1,2,2-Tetrahydroperfluoro-1-decanol] | 95 | 
2 | c1ccc2n[nH]nc2c1 [1,2,3-Benzotriazole] | 93 | 
3 | Clc1cccc(Cl)c1Cl [1,2,3-Trichlorobenzene] | 32 | 
4 | Clc1cc(Cl)c(Cl)cc1Cl [1,2,4,5-Tetrachlorobenzene] | 110 | 
5 | Clc1ccc(Cl)c(Cl)c1 [1,2,4-Trichlorobenzene] | 100 | 
6 | O=c1[nH]sc2ccccc12 [1,2-Benzisothiazolin-3-one] |  | benchmark concentration (CHO-K1 [2]; [4]): 32 µM
7 | Cc1ccc([N+](=O)[O-])cc1C [1,2-Dimethyl-4-nitrobenzene] | 89 | 
8 | Nc1ccccc1N [1,2-Phenylenediamine] | 47 | 
9 | CC1(C)C(=O)N(Br)C(=O)N1Br [1,3-Dibromo-5,5-dimethylhydantoin] | 93 | 
10 | OC(CCl)CCl [1,3-Dichloro-2-propanol] | 75 | 
11 | Clc1cccc(Cl)c1 [1,3-Dichlorobenzene] | 160 | 
12 | O=C=NCCCCCCN=C=O [1,6-Diisocyanatohexane] | 100 | 
13 | O=[N+]([O-])c1ccc(Cl)cc1 [1-Chloro-4-nitrobenzene] | 120 | 
14 | CCCCCCCCCCO [1-Decanol] | 120 | 
15 | O=c1[nH]cnc2c1ncn2[C@H]1CC[C@@H](CO)O1 [2',3'-Dideoxyinosine] |  | benchmark concentration (CHO-K1 [2]; [3]): 84 µM
16 | CC(C)C(=O)OCC(C)(C)C(OC(=O)C(C)C)C(C)C (configuration not stated) [2,2,4-Trimethyl-1,3-pentanediol diisobutyrate] | 190 | 
17 | c1ccc2occc2c1 [2,3-Benzofuran] | 61 | 
18 | Cc1ccc(O)c(C)c1 [2,4-Dimethylphenol] |  | benchmark concentration (CHO-K1 [2]; [3]): 79 µM
19 | CC(C)(C)OOC(C)(C)CCC(C)(C)OOC(C)(C)C [2,5-Dimethyl-2,5-di-(tert-butylperoxy)hexane] | 60 | 
20 | Cc1cccc(C)c1N [2,6-Dimethylaniline] | 87 | 
21 | CCCCOCCOCCO [2-(2-Butoxyethoxy)ethanol] | 100 | 
22 | Oc1ccccc1Cl [2-Chlorophenol] | 97 | 
23 | CCCCC(CC)CO (configuration not stated) [2-Ethyl-1-hexanol] | 56 | 
24 | COc1ccc([N+](=O)[O-])cc1N [2-Methoxy-5-nitroaniline] | 90 | 

Row | SMILES | benchmark concentration (CHO-K1 [1]; [3]) [µM] | other results
25 | COc1cc(-c2ccc(N)c(OC)c2)ccc1N [3,3'-Dimethoxybenzidine dihydrochloride] | 7.6 | 
26 | Cc1ccc(N)c(N)c1 [3,4-Diaminotoluene] | 52 | 
27 | CC(C)=CCC/C(C)=C/C=O [3,7-Dimethyl-2,6-octadienal] | 28 | 
28 | Cc1cn(C2CC(N=[N+]=[N-])C(CO)O2)c(=O)[nH]c1=O (configuration not stated) [3-Azido-3-deoxythymidine] | 72 | 
29 | CC(=O)OCCC(C)C [3-Methylbutyl acetate] | 13 | 
30 | Nc1ccc(Cc2ccc(N)cc2)cc1 [4,4'-Methylenedianiline] | 74 | 
31 | Nc1ccc(C(=O)O)cc1 [4-Aminobenzoic acid] | 110 | 
32 | C[C@]12CCC(=O)C=C1CC[C@@H]1[C@@H]2CC[C@]2(C)C(=O)CC[C@@H]12 [4-Androstene-3,17-dione] | 34 | 
33 | Nc1ccc(Cl)cc1N [4-Chloro-1,2-diaminobenzene] |  | benchmark concentration (CHO-K1 [2]; [3]): 41 µM
34 | Cc1ccc(Cl)cc1 [4-Chlorotoluene] | 60 | 
35 | CCCCCCc1ccc(O)cc1O [4-Hexylresorcinol] | < 4.5 | 
36 | COc1cc(C=O)ccc1O [4-Hydroxy-3-methoxybenzaldehyde] | 53 | 
37 | C1CC2OC2CC1C1CO1 (configuration not stated) [4-Vinyl-1-cyclohexene dioxide] | 35 | 
38 | Cc1ccc(N)cc1O [5-Amino-2-methylphenol] | 5.3 | 
39 | Oc1cccc2cccnc12 [8-Hydroxyquinoline] |  | benchmark concentration (CHO-K1 [2]; [4]): 16 µM; benchmark concentration (CHO-K1 [2]; [3]): 26 µM
40 | C/C=C/c1ccc(OC)cc1 [(E)-Anethole] | 35 | 
41 | CC(N)=O [Acetamide] |  | benchmark concentration (CHO-K1 [2]; [3]): 5.8 µM
42 | CC(=O)Nc1ccc(O)cc1 [Acetaminophen] | 36 | 
43 | CC(=O)c1ccccc1 [Acetophenone] | 50 | 
44 | CSC(C)(C)/C=N/O [Aldicarb oxime] | 40 | 
45 | c1ccc2cc3ccccc3cc2c1 [Anthracene] | 51 | 
46 | ClC(Cl)c1ccccc1 [Benzal chloride] | 91 | 
47 | O=C(O)c1ccccc1 [Benzoic acid] | 110 | 
48 | ClC(Cl)(Cl)c1ccccc1 [Benzotrichloride] | 45 | 

Row | SMILES | benchmark concentration (CHO-K1 [1]; [3]) [µM] | other results
49 | NC(=O)N1c2ccccc2C=Cc2ccccc21 [Carbamazepine] | 110 | 
50 | COC(=O)Nc1nc2ccccc2[nH]1 [Carbendazim] | < 4.5 | benchmark concentration (CHO-K1 [1]; [4]): 32 µM
51 | Cc1c(C(=O)O)c(O)cc2c1C(=O)c1c(O)c([C@@H]3O[C@H](CO)[C@@H](O)[C@H](O)[C@H]3O)c(O)c(O)c1C2=O [Carminic acid] | 13 | 
52 | Nc1cc(Cl)cc(C(=O)O)c1Cl [Chloramben] | 110 | benchmark concentration (CHO-K1 [1]; [4]): 9.7 µM
53 | ClC1=C(Cl)C2(Cl)C3C(Cl)C(Cl)CC3C1(Cl)C2(Cl)Cl (configuration not stated) [Chlordane] | 54 | 
54 | CC(C)=CCCC(C)CCO (configuration not stated) [Citronellol] | 72 | 
55 | CCOC(=O)C(C)(C)Oc1ccc(Cl)cc1 [Clofibrate] | 130 | 
56 | Oc1ccc(Cl)cc1Cc1ccccc1 [Clorophene] | 34 | 
57 | O=c1ccc2ccccc2o1 [Coumarin] | 9.7 | 
58 | O=c1[nH]c(=O)[nH]c(=O)[nH]1 [Cyanuric acid] | 91 | 
59 | Nc1ccc(S(=O)(=O)c2ccc(N)cc2)cc1 [Dapsone] | 39 | 
60 | CCCCCCCCCC(=O)O [Decanoic acid] | 30 | 
61 | OCCNCCO [Diethanolamine] | 84 | 
62 | COCCOCCO [Diethylene glycol monomethyl ether] | 90 | 
63 | CC/C(=C(/CC)c1ccc(O)cc1)c1ccc(O)cc1 [Diethylstilbestrol] | 4.8 | 
64 | CC(C)COC(=O)c1ccccc1C(=O)OCC(C)C [Diisobutyl phthalate] | 32 | 
65 | COC(=O)CCCCC(=O)OC [Dimethyl adipate] | 110 | 
66 | COC(=O)c1ccccc1C(=O)OC [Dimethyl phthalate] | 120 | 
67 | ClC1=C(Cl)C2(Cl)C3C4CC(C5OC45)C3C1(Cl)C2(Cl)Cl (configuration not stated) [Endrin] | < 4.5 | 
68 | O=S(=O)(O)c1ccc(N=Nc2c(O)ccc3cc(S(=O)(=O)O)ccc23)cc1 [FD&C Yellow 6] | 13 | 
69 | OC(Cn1cncn1)(Cn1cncn1)c1ccc(F)cc1F [Fluconazole] | 90 | 
70 | CC(C)C(=O)Nc1ccc([N+](=O)[O-])c(C(F)(F)F)c1 [Flutamide] | 17 | 
71 | C/C=C\c1ccc(O)c(OC)c1 [Isoeugenol] | 72 | 
72 | CC(C)NCC(O)c1ccc(O)c(O)c1 (configuration not stated) [Isoproterenol hydrochloride] | 110 | 

Row | SMILES | benchmark concentration (CHO-K1 [1]; [3]) [µM] | other results
73 | Cc1occc(=O)c1O [Maltol] | 100 | 
74 | COC(=O)c1ccccc1N [Methyl 2-aminobenzoate] | 77 | 
75 | CCc1cccc(C)c1N(C(=O)CCl)C(C)COC (configuration not stated) [Metolachlor] | 180 | 
76 | Cc1ccc(N(C)C)cc1 [N,N,4-Trimethylaniline] | 39 | 
77 | CCN(CC)c1ccccc1 [N,N-Diethylaniline] | 77 | 
78 | CN(C)c1ccccc1 [N,N-Dimethylaniline] | 43 | 
79 | O=[N+]([O-])c1ccccc1 [Nitrobenzene] | 26 | 
80 | CN(C)[C@@H]1C(=O)C(C(N)=O)=C(O)[C@@]2(O)C(=O)C3=C(O)c4c(O)cccc4[C@@](C)(O)[C@H]3[C@H](O)[C@@H]12 [Oxytetracycline hydrochloride] |  | benchmark concentration (CHO-K1 [1]; [4]): 110 µM
81 | O=C(O)C(F)(F)C(F)(F)C(F)(F)C(F)(F)C(F)(F)C(F)(F)C(F)(F)F [PFOA] | 6.7 | 
82 | Oc1c(Cl)c(Cl)c(Cl)c(Cl)c1Cl [Pentachlorophenol] | 9 | 
83 | CCc1nc(N)nc(N)c1-c1ccc(Cl)cc1 [Pyrimethamine] | 49 | 
84 | O=c1c(O)c(-c2ccc(O)c(O)c2)oc2cc(O)cc(O)c12 [Quercetin] | 110 | 
85 | CN(C)C(=S)S [Sodium dimethyldithiocarbamate] | 49 | 
86 | O=NO [Sodium nitrite] | 77 | 
87 | c1ccc2[nH]c(-c3cscn3)nc2c1 [Thiabendazole] | 14.1 ± 7 | 
88 | CCN(CC)C(=O)SCc1ccc(Cl)cc1 [Thiobencarb] | 113 ± 110 | 
89 | Cc1ccc(C(C)C)c(O)c1 [Thymol] | 100 | 
90 | O=C(Nc1ccc(Cl)cc1)Nc1ccc(Cl)c(Cl)c1 [Triclocarban] | < 4.5 | 
91 | O=P(OCCCl)(OCCCl)OCCCl [Tris(2-chloroethyl) phosphate] | 150 | 
92 | Cc1c(C)c2c(c(C)c1O)CCC(C)(COc1ccc(CC3SC(=O)NC3=O)cc1)O2 (configuration not stated) [Troglitazone] | 14 | 
93 | Cl[C@H]1[C@H](Cl)[C@@H](Cl)[C@H](Cl)[C@@H](Cl)[C@@H]1Cl [beta-Hexachlorocyclohexane] | 32 | 
94 | Cc1ccccc1O [o-Cresol] | 130 | 

Source: the supplement of paper PMC9151546
